Experiments:
PHKG2 = target: T1, PHKG2 (Homo sapiens, UniProt P15735); experiment: Kinase panel profiling at 1 µmol/L (mobility shift assay, Carna); format: biochemical; conditions: 1 µmol/L of BTK inhibitor
T1 construct: purchased Carna Biosciences
T1 sequence (P15735 1-406): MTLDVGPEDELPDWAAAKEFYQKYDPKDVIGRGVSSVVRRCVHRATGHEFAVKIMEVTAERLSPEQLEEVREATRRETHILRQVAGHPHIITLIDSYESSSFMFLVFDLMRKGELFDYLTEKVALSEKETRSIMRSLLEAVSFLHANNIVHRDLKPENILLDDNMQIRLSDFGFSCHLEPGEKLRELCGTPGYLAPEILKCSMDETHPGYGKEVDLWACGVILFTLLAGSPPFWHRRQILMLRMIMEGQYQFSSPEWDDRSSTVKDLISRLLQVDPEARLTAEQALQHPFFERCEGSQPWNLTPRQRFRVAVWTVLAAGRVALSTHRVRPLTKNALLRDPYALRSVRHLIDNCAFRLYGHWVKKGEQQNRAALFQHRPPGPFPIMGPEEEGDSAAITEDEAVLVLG

IRAK4 = target: T2, IRAK4 (Homo sapiens, UniProt Q9NWZ3); experiment: as above; format: biochemical; conditions: 1 µmol/L of BTK inhibitor
T2 construct: purchased Carna Biosciences
T2 sequence (Q9NWZ3 1-460): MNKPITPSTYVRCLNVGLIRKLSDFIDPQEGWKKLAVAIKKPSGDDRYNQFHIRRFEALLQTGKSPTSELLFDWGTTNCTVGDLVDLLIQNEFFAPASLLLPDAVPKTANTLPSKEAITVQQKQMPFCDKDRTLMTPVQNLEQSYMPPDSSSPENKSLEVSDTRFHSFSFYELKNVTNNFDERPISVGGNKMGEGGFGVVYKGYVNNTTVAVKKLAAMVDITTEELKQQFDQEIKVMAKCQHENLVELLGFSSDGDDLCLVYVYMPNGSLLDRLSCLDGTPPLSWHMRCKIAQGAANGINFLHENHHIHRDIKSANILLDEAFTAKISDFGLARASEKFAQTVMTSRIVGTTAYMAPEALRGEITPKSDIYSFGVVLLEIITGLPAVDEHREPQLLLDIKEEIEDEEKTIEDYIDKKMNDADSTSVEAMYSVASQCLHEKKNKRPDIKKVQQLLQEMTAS

CDC7/ASK = target: T3, CDC7/ASK (Homo sapiens, UniProt O00311); experiment: as above; format: biochemical; conditions: 1 µmol/L of BTK inhibitor
T3 construct: purchased Carna Biosciences

EPHA3 = target: T4, EPHA3 (Homo sapiens, UniProt P29320); experiment: as above; format: biochemical; conditions: 1 µmol/L of BTK inhibitor
T4 construct: purchased Carna Biosciences
T4 sequence (P29320 21-983): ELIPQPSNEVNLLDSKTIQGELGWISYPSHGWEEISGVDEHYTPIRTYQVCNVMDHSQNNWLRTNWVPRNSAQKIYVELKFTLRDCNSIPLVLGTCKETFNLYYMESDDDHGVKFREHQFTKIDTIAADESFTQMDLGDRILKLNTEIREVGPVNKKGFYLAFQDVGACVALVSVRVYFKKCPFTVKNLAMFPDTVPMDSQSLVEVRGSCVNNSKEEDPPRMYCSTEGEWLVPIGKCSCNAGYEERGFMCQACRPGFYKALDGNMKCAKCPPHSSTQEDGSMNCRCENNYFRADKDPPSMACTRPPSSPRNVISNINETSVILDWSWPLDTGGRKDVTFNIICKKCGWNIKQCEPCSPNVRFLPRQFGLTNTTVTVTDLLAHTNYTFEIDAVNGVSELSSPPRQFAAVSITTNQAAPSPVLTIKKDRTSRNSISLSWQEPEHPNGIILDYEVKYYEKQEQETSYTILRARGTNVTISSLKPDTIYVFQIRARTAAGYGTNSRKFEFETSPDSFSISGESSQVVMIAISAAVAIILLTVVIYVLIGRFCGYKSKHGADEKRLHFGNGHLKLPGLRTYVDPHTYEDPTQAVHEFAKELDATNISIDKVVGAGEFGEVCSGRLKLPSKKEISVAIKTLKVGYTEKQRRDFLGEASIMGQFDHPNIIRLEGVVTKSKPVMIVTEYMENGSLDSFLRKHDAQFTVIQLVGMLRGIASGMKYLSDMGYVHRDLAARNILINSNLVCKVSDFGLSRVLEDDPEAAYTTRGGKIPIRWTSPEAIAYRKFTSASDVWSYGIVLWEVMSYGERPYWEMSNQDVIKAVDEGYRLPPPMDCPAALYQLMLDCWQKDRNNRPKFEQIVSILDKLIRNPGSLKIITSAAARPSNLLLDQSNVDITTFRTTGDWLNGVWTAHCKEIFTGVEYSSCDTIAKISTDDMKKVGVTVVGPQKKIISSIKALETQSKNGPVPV

MNK1 = target: T5, MNK1 (Homo sapiens, UniProt Q9BUB5); experiment: as above; format: biochemical; conditions: 1 µmol/L of BTK inhibitor
T5 construct: purchased Carna Biosciences

CaMK2β = target: T6, CaMK2β (Homo sapiens, UniProt Q13554); experiment: as above; format: biochemical; conditions: 1 µmol/L of BTK inhibitor
T6 construct: purchased Carna Biosciences

SRM = target: T7, SRM (Homo sapiens, UniProt Q9H3Y6); experiment: as above; format: biochemical; conditions: 1 µmol/L of BTK inhibitor
T7 construct: purchased Carna Biosciences

SRPK2 = target: T8, SRPK2 (Homo sapiens, UniProt P78362); experiment: as above; format: biochemical; conditions: 1 µmol/L of BTK inhibitor
T8 construct: purchased Carna Biosciences

RON = target: T9, RON (Homo sapiens, UniProt Q04912); experiment: as above; format: biochemical; conditions: 1 µmol/L of BTK inhibitor
T9 construct: purchased Carna Biosciences

PDGFRα = PDGFRα (Homo sapiens, UniProt P16234); experiment: Kinase enzyme activity assay (mobility shift assay, Carna); conditions: for Percentage inhibition of kinase enzyme activity: PDGFRα, 1 µmol/L of BTK inhibitor
p70S6K = target: T10, p70S6K (Homo sapiens, UniProt P23443); experiment: Kinase panel profiling at 1 µmol/L (mobility shift assay, Carna); format: biochemical; conditions: 1 µmol/L of BTK inhibitor
T10 construct: purchased Carna Biosciences

RSK4 = target: T11, RSK4 (Homo sapiens, UniProt Q9UK32); experiment: as above; format: biochemical; conditions: 1 µmol/L of BTK inhibitor
T11 construct: purchased Carna Biosciences

PKN1 = target: T12, PKN1 (Homo sapiens, UniProt Q16512); experiment: as above; format: biochemical; conditions: 1 µmol/L of BTK inhibitor
T12 construct: purchased Carna Biosciences

MINK = target: T13, MINK (Homo sapiens, UniProt Q8N4C8); experiment: as above; format: biochemical; conditions: 1 µmol/L of BTK inhibitor
T13 construct: purchased Carna Biosciences

Sequence of PDGFRα (P16234 24-1089): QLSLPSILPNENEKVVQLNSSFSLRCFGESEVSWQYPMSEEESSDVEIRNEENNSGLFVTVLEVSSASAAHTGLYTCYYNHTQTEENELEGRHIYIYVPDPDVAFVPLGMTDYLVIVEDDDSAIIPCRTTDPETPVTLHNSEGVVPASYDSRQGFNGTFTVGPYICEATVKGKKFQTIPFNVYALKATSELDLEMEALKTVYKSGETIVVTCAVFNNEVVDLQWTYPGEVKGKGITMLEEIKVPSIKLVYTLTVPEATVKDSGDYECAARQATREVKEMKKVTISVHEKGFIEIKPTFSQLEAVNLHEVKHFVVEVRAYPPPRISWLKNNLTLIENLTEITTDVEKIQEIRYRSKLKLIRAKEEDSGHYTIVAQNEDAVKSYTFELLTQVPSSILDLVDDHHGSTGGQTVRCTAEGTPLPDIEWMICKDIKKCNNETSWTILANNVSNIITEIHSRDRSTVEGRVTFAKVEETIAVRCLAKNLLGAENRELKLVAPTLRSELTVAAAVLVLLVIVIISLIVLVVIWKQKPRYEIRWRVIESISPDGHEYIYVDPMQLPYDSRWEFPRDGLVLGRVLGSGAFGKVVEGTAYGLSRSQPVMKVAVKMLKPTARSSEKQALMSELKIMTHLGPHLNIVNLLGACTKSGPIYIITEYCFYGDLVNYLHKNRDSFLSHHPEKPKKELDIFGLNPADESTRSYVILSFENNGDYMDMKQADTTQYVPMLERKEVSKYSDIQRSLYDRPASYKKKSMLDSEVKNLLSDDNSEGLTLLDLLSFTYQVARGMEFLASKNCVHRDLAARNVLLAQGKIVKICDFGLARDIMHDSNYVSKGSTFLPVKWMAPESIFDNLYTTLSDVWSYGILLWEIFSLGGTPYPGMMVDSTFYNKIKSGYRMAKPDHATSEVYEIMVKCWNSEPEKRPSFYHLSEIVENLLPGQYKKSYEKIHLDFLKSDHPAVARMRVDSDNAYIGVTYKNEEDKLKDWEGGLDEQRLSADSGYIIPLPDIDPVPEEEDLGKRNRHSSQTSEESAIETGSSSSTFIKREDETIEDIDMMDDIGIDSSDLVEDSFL
T11 sequence (Q9UK32 whole entry): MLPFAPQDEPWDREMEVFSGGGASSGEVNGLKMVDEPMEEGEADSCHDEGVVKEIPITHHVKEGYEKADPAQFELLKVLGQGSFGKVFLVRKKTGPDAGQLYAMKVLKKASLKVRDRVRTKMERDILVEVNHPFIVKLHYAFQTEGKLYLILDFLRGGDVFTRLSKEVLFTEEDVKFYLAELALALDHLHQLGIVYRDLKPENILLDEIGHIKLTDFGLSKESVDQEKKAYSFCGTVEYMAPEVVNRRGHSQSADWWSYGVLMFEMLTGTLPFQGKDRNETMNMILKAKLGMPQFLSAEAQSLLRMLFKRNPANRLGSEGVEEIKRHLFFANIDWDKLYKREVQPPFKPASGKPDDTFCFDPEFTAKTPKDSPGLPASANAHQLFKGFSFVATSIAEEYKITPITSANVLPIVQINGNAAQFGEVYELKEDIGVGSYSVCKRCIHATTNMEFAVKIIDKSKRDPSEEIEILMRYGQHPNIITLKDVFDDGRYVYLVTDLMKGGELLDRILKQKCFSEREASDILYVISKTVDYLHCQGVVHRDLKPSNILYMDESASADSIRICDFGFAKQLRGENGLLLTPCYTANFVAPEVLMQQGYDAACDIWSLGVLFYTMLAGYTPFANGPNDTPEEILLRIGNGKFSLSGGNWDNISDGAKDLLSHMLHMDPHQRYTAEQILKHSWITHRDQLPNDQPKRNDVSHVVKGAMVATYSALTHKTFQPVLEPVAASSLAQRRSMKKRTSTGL
T8 sequence (P78362 whole entry): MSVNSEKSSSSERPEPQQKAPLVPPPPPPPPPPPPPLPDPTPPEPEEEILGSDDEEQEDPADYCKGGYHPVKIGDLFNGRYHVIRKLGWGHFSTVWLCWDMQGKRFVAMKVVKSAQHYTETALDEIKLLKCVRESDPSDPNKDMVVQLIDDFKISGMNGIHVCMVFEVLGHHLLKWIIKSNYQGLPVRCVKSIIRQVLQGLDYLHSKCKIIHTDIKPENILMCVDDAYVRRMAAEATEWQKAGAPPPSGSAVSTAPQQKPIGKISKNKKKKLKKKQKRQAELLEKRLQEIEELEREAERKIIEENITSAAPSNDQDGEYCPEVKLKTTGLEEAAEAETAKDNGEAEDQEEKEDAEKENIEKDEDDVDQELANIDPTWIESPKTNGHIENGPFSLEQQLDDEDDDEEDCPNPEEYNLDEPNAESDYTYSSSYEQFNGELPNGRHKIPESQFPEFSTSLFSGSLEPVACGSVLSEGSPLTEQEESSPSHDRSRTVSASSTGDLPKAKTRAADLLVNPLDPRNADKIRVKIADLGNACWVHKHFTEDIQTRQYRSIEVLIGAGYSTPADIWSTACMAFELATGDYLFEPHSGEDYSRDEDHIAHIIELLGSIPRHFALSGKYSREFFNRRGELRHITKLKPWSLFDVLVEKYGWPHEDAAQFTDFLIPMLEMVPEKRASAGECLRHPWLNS
T7 sequence (Q9H3Y6 whole entry): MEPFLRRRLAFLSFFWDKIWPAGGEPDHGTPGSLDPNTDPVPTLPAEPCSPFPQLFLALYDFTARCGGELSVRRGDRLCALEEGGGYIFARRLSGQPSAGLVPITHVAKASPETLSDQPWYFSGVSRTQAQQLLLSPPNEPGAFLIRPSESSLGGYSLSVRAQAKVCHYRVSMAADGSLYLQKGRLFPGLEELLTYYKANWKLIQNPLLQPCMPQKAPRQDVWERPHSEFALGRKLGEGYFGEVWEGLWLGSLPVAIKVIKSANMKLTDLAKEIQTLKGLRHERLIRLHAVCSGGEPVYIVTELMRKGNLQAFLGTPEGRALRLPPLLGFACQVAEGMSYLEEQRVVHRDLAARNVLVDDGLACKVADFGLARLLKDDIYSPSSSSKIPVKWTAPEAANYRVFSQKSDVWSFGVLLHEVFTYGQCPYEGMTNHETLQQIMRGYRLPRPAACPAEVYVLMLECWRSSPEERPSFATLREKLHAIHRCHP
T12 sequence (Q16512 whole entry): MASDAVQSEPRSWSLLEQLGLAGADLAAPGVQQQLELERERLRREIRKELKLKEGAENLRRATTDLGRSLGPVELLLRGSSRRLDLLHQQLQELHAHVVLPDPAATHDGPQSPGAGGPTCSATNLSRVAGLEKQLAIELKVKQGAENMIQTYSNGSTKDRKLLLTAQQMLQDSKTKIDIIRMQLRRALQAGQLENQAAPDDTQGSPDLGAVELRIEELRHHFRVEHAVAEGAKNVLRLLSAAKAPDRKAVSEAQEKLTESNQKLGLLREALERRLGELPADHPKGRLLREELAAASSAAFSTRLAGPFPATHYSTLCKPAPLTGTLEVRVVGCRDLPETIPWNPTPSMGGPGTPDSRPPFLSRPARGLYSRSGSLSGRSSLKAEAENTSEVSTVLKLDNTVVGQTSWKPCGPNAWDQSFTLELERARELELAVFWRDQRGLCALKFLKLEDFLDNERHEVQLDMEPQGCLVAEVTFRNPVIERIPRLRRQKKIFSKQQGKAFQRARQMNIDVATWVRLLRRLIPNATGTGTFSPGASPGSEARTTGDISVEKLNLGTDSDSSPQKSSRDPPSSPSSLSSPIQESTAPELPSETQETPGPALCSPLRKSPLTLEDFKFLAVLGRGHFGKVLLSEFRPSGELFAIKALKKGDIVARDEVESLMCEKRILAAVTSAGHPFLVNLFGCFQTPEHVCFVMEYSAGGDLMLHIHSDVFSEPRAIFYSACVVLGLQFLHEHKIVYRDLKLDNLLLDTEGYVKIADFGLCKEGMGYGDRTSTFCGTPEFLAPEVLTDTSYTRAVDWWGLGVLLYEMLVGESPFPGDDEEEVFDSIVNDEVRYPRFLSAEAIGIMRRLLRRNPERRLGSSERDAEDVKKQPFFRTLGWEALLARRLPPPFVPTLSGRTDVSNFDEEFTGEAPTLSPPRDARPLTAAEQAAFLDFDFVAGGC
T6 sequence (Q13554 whole entry): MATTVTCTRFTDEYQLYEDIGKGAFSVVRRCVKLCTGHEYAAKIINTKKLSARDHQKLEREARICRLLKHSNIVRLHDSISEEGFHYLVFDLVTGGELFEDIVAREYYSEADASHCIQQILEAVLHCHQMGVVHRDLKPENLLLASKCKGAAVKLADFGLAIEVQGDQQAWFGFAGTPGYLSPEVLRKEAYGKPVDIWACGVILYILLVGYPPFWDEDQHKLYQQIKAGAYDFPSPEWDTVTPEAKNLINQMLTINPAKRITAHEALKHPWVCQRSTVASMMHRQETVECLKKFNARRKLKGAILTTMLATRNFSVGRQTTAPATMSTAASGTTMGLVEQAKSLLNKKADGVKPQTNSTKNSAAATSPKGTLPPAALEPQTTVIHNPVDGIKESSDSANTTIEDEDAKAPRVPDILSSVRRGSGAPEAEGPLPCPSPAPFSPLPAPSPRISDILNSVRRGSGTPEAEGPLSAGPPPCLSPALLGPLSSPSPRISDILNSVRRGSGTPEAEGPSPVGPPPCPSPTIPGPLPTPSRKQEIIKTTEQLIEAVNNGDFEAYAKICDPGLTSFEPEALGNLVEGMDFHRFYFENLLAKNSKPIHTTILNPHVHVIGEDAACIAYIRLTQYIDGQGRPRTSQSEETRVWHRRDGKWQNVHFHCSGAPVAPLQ
T5 sequence (Q9BUB5 whole entry): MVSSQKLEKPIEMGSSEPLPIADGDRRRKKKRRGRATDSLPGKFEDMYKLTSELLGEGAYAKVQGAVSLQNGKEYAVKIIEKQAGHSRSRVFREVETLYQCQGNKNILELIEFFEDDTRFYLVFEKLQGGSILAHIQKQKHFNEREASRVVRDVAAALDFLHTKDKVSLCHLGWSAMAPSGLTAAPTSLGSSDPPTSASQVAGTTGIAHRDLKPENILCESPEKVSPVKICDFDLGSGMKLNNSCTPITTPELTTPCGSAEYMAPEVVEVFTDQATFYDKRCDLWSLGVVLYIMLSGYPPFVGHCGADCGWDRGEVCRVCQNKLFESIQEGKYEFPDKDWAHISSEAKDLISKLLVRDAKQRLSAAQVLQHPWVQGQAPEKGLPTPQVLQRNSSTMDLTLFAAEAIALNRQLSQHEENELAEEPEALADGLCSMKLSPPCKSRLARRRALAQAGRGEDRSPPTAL

| SMILES | Percentage inhibition of kinase enzyme activity (PHKG2) [%] | Percentage inhibition of kinase enzyme activity (IRAK4) [%] | Percentage inhibition of kinase enzyme activity (CDC7/ASK) [%] | Percentage inhibition of kinase enzyme activity (EPHA3) [%] | Percentage inhibition of kinase enzyme activity (MNK1) [%] | Percentage inhibition of kinase enzyme activity (CaMK2β) [%] | Percentage inhibition of kinase enzyme activity (SRM) [%] | Percentage inhibition of kinase enzyme activity (SRPK2) [%] | Percentage inhibition of kinase enzyme activity (RON) [%] | Percentage inhibition of kinase enzyme activity (PDGFRα) [%] | Percentage inhibition of kinase enzyme activity (p70S6K) [%] | Percentage inhibition of kinase enzyme activity (RSK4) [%] | Percentage inhibition of kinase enzyme activity (PKN1) [%] | Percentage inhibition of kinase enzyme activity (MINK) [%] | IC50 (PDGFRα) [nM] |
| --- | --- | --- | --- | --- | --- | --- | --- | --- | --- | --- | --- | --- | --- | --- | --- |
| CC#CC(=O)N1CCC[C@H]1c1nc(-c2ccc(C(=O)Nc3ccccn3)cc2)c2c(N)nccn12 [acalabrutinib] | 0.00605 | -6.55 | -1.64 | -2.07 | 11.59 | -1.09 | 39.49 | 0.69 | 7.68 | 1.38 | -13.73 | 4.21 | 11.29 | -1.13 |  |
| C=CC(=O)N1CCC[C@@H](n2nc(-c3ccc(Oc4ccccc4)cc3)c3c(N)ncnc32)C1 [ibrutinib] | 0.82 | -5.09 | -0.99 | 3.80 | 14.52 | -2.56 | 102.20 | 3.01 | 6.98 | 94.28 | 19.28 | 5.52 | 8.58 | -6.41 |  |
| O=C(c1ccc(Oc2ccccc2)cc1Cl)c1c[nH]c2ncnc(N[C@@H]3CC[C@@H](CO)OC3)c12 [nemtabrutinib] | 5.39 | 2.38 | -1.26 | 50.57 | 7.10 | 2.18 | 102.16 | 1.38 | 33.63 | 88.08 | 4.51 | -2.32 | 5.57 | 46.67 | 12.4 |
| C=CC(=O)N1CCC([C@@H]2CCNc3c(C(N)=O)c(-c4ccc(Oc5ccccc5)cc4)nn32)CC1 [zanubrutinib] |  |  |  | -0.20 |  |  | 57.79 |  |  | 3.66 |  |  |  |  |  |
| COc1ccc(F)cc1C(=O)NCc1ccc(-c2nn([C@@H](C)C(F)(F)F)c(N)c2C(N)=O)cc1 [pirtobrutinib] | 7.27 | -1.11 | -5.67 | -5.46 | 2.15 | -2.89 | 18.61 | -2.34 | 6.55 | 3.06 | -0.48 | -0.12 | 15.81 | -0.79 |  |

— publication PMC12586182 (Frontiers in Oncology, 2025)
